Measured values published in patent publication US8440710B2, “HSL inhibitors useful in the treatment of diabetes” (Hoffmann-La Roche Inc., priority 2009, dated 2013).
pIC50: −log10 of the molar value.

biological target: T1, human HSL (Homo sapiens, UniProt Q05469); assay: Human Hormone-Sensitive Lipase (HSL) enzyme inhibition assay (colorimetric, DMPT substrate); format: biochemical; settings: human full length HSL-His6, 2,3-dimercapto-1-propanol tributyrate substrate, 37° C. 20 minutes, absorbance at 405 nm; read-out: HSL hum IC50
T1 construct: generate a full length human HSL ORF with a 3′-His6 tag; made in house; host or cells: High 5 insect cells (baculovirus, pFast-BAC)
T1 sequence (Q05469 1-1076): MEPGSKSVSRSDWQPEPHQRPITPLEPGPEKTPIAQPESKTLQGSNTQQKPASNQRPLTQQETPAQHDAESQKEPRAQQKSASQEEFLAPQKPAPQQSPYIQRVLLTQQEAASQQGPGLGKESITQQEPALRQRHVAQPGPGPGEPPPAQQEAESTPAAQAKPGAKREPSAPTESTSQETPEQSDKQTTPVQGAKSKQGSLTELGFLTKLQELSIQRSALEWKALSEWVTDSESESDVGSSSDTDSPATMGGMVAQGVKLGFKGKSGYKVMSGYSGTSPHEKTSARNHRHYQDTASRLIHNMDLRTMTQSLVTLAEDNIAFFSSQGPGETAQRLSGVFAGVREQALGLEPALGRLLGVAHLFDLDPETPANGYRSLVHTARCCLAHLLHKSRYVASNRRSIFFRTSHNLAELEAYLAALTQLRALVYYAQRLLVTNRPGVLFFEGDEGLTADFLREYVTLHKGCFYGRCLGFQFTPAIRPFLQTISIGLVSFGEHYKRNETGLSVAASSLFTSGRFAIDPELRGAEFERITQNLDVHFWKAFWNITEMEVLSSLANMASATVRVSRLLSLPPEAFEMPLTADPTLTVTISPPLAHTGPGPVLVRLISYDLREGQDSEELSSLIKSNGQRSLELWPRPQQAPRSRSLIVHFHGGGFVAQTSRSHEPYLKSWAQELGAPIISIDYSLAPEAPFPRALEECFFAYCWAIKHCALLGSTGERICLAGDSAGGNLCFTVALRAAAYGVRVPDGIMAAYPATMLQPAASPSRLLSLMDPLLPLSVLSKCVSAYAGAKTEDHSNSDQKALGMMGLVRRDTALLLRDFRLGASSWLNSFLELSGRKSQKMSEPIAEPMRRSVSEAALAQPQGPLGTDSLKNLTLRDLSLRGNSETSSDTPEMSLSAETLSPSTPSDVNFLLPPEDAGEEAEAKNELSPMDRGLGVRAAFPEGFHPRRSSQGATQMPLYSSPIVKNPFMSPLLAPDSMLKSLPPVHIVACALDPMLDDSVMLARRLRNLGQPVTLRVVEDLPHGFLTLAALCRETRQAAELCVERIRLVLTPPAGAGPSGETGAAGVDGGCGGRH
Outline: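 Full-length human HSL with C-terminal His6, expressed in baculovirus-infected High 5 cells and Ni-NTA purified, was added (15 ug/ml stock) to 1.5 mM DMPT in 100 mM MOPS pH 7.2, 0.2 mg/ml fatty acid-free BSA containing compound. After 20 min at 37 °C, DTNB with SDS/Triton X-100 was added; A405 read after 15 min at RT.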

| Structure (SMILES) | pIC50 |
| --- | --- |
| CC(C)[C@]1(O)CC[C@]2(CCN(c3ccc(C(F)(F)F)cc3)C2=O)CC1 [Example 209, (5α,8α)-8-hydroxy-8-isopropyl-2-(4-(trifluoromethyl)phenyl)-2-aza-spiro[4.5]decan-1-one] | 7.52 |
| O=C1N(c2ccc(OC(F)(F)F)cc2)CC[C@]12CC[C@](O)(Cc1ccccc1)CC2 [Example 63, (5α,8β)-8-Benzyl-8-hydroxy-2-(4-trifluoromethoxy-phenyl)-2-aza-spiro[4.5]decan-1-one] | 6.22 |
| CCc1ccc(N2CC[C@]3(CC[C@@H](OC(=O)NCc4cccc(F)c4)CC3)C2=O)cc1 [Example 7, (3-Fluoro-benzyl)-carbamic acid [(5α,8β)-2-(4-ethyl-phenyl)-1-oxo-2-aza-spiro[4.5]dec-8-yl]ester] | 7.15 |
| CC[C@]1(O)CC[C@@]2(CCN(c3ccc(OC(F)(F)F)cc3)C2=O)CC1 [Example 61, (5α,8β)-8-Ethyl-8-hydroxy-2-(4-trifluoromethoxy-phenyl)-2-aza-spiro[4.5]decan-1-one] | 5.68 |
| O=C1N(c2ccc(OCC(F)(F)F)cc2)CC[C@]12CC[C@@](O)(COCCC(F)(F)F)CC2 [Example 277, (5α,8α)-8-Hydroxy-2-[4-(2,2,2-trifluoro-ethoxy)-phenyl]-8-(3,3,3-trifluoro-propoxymethyl)-2-aza-spiro[4.5]decan-1-one] | 7.40 |
| CCCNC(=O)O[C@H]1CC[C@]2(CCN(c3ccc(CC)cc3)C2=O)CC1 [Example 44, Propyl-carbamic acid [(5α,8α)-2-(4-ethyl-phenyl)-1-oxo-2-aza-spiro[4.5]dec-8-yl]ester] | 5.83 |
| CC(Oc1ccc(N2CC[C@]3(CC[C@@](O)(C(F)(F)F)CC3)C2=O)cc1)C(F)(F)F (stereo partly drawn) [Example 177, (5α,8α)-8-Hydroxy-8-trifluoromethyl-2-[4-(2,2,2-trifluoro-1-methyl-ethoxy)-phenyl]-2-aza-spiro[4.5]decan-1-one] | 7.52 |
| CC(O)C1CCC2(CC1)CCN(c1ccc(C(C)(C)C)cc1)C2=O (stereo not drawn) [Example 357, (5α,8β)-2-(4-tert-Butyl-phenyl)-8-(1-hydroxy-ethyl)-2-aza-spiro[4.5]decan-1-one] | 7.30 |
| O=C(NCC1CC1)O[C@H]1CC[C@@]2(CCN(c3ccc(OC(F)(F)F)cc3)C2=O)CC1 [Example 22, (Cyclopropylmethyl)-carbamic acid [(5α,8β)-1-oxo-2-(4-trifluoromethoxy-phenyl)-2-aza-spiro[4.5]dec-8-yl]ester] | 7.22 |

Now those with a higher pIC50, led by results:

| pIC50 | Structure (SMILES) |
| --- | --- |
| 8.00 | CC(C)(C)SC[C@]1(O)CC[C@]2(CCN(c3ccc(OCC(F)(F)F)cc3)C2=O)CC1 [Example 319, (5α,8α)-8-tert-Butylsulfanylmethyl-8-hydroxy-2-[4-(2,2,2-trifluoro-ethoxy)-phenyl]-2-aza-spiro[4.5]decan-1-one] |
| 8.00 | CC(C)Oc1ccc(N2CC[C@]3(CC[C@@](O)(c4c(Br)nnn4C)CC3)C2=O)cc1 [Example 212, (5α,8α)-8-(5-Bromo-3-methyl-3H-[1,2,3]triazol-4-yl)-8-hydroxy-2-(4-isopropoxy-phenyl)-2-aza-spiro[4.5]decan-1-one] |
| 7.70 | CCCOC[C@]1(O)CC[C@]2(CCN(c3ccc(CC)cc3)C2=O)CC1 [Example 226, (5α,8α)-2-(4-Ethyl-phenyl)-8-hydroxy-8-propoxymethyl-2-aza-spiro[4.5]decan-1-one] |
| 8.00 | CC(C)c1ccc(N2CC[C@]3(CC[C@@](O)(c4ccccc4)CC3)C2=O)cc1 [Example 205, (5α,8α)-8-hydroxy-2-(4-isopropylphenyl)-8-phenyl-2-aza-spiro[4.5]decan-1-one] |
| 7.70 | CC(C)S(=O)(=O)C[C@]1(O)CC[C@]2(CCN(c3ccc(O[C@H](C)C(F)(F)F)nc3)C2=O)CC1 [Example 324, (5α,8α)-8-Hydroxy-8-(propane-2-sulfonylmethyl)-2-[6-((R)-2,2,2-trifluoro-1-methyl-ethoxy)-pyridin-3-yl]-2-aza-spiro[4.5]decan-1-one] |
